Our source for the Kd, binding and ΔTm values is paper PMC9556435 (2022).

Assay [1] relates to KRAS-G4 (Pu24m1) (DNA, G4) TGAGGGCGGTGTGGGAATAGGGAA
Briefly: fluorescence titration. The conditions noted are these: 50 mM K+; pH 7; 0.2 μM compound fixed, titrated with DNA; 2:1 binding equation.

Assay [2] deals with VEGF-G4 (DNA, G4) CAGGGCGGGCCTTGGGCGGGAT
Briefly: 1H NMR titration. The conditions noted are these: 50 mM K+; 150 μM DNA, pH 7, 25 °C, DMSO-d6 < 1.5%.

Assay [3] concerns KRAS-G4 (Pu24m1) (DNA, G4) TGAGGGCGGTGTGGGAATAGGGAA
Briefly: NMR solution structure. The conditions noted are these: 50 mM K+; 1.5 mM DNA, pH 7, DMSO-d6 < 3.5%; stacks on both outer tetrads.

Assay [4] has as its system MYC-G4 (DNA, G4) TGAGGGTGGGTAGGGTGGGTAA
Briefly: 1H NMR titration. The conditions noted are these: 50 mM K+; 150 μM DNA, pH 7, 25 °C, DMSO-d6 < 1.5%.

The subject of assay [5] is KRAS-G4 (Pu24m1) (DNA, G4) TGAGGGCGGTGTGGGAATAGGGAA
Briefly: CD melting (264 nm). The conditions noted are these: 15 mM K+; potassium phosphate/KCl, pH 7; 20 μM DNA, 2 equivalents compound.

Each structure is given as a SMILES string.

On to `COc1ccc2cc3[n+](cc2c1OC)CCc1cc2c(cc1-3)OCO2`, for which the Kd – broadly, the equilibrium constant for the complex coming apart – in assay [1] turned out to be 550 nM. Besides, the binding result in assay [2], in assay [3] and in assay [4] was “yes” each time. Besides, the shift in melting temperature (ΔTm) (in general, the shift of the melting midpoint relative to a reference) in assay [5] came to 15 °C.
`c1c2c(cc3c1OCO3)-c1cc3ccc4c(c3c[n+]1CC2)OCO4` registered a Kd in assay [1] of 500 nM. For the same molecule, the binding result in assay [2], in assay [3] and in assay [4] was “yes” each time. Further, in assay [5], the ΔTm came out at 19 °C.
